Experimental data: ChEMBL document CHEMBL1130255, “Intensely cytotoxic anthracycline prodrugs: glucuronides” (J Med Chem, 1997)

Legend:
[1] = Half-life when incubated at 37 C in 0.05 M phosphate buffer, pH 7.4, the concentration of 12 uM,; type: ADME
glucuronidase = experiment: Half-life in the presence of Escherichia coli -glucuronidase; type: ADME; conditions: Escherichia coli glucuronidase enzyme

**Q.** With `CCOC(CCCN)O[C@@H]1O[C@H](C(=O)[O-])[C@@H](O)[C@H](O)[C@H]1O.[Na+]` (some centres not stated) as the compound, how does the half-life at 12 µM [1] read?
**A.** 30 h

**Q.** What about the half-life (glucuronidase) of the same compound?
**A.** 1.7 h
